Series [1] deals with HeLa cells stably expressing dual-luciferase (HeLa-dluc). The series can be described thus: in vitro knockdown activity, dual-luciferase assay. The class given is cell-based. As for the experimental part: Hemolysis activity, in vitro knockdown activity, and in vivo F7 knockdown activity, which are indicators of endosome escape activity, were measured. Regarding the hemolysis activity, mouse erythrocytes and LNPs were mixed in a buffer solution adjusted to pH 6.5, the mixture was incubated at 37° C. for 30 minutes and then centrifuged, and an absorbance of the supernatant at 545 nm was measured. Hemolysis efficiency of each sample was calculated by respectively using a sample to which LNPs were not added and a sample to which Triton X-100 having a final concentration of 0.5% was added, as a negative control and a positive control. Regarding the in vitro knockdown activity, LNPs loaded with siRNA against luciferase were added to HeLa cells stably expressing dual-luciferase (HeLa-dluc) at various concentrations, and knockdown efficiency was calculated 24 hours after the addition by dual-luciferase assay. […] Regarding the in vivo F7 knockdown activity, 0.1 mg siRNA/kg of LNPs loaded with siRNA against F7 were intravenously administered to an ICR mouse (4 weeks old, female), and F7 enzyme activity in plasma was measured 24 hours after the administration. Each activity against pKa was plotted (FIG. 3).
The influence of hydrophobic scaffolds on siRNA introduction activity of small LNPs with an average particle diameter of about 35 nm was examined. […]

Series [2] in a line: cationic lipid content in liver and spleen by LC/MS. The class given is in vivo, mouse. The settings on record: 1 mg siRNA/kg of LNP i.v., ICR mice; until 72 hours.
Procedure: 1 mg siRNA/kg of Each LNP was intravenously administered to ICR mice (4 weeks old, female), the liver and spleen were recovered over time, and each cationic lipid was quantitatively determined by LC/MS.

Turning to `CCCCC/C=C\C/C=C\CCCCCCCCC(O)(CCCCCCCC/C=C\C/C=C\CCCCC)CCCCOC(=O)C1CCN(C)CC1` [CL15A, (14Z,17Z)-5-Hydroxy-5-((9Z,12Z)-octadeca-9,12-dien-1-yl)tricosa-14,17-dien-1-yl 1-methylpiperidine-4-carboxylate], in series [1] (30 nM siRNA, small LNPs, average particle diameter about 35 nm, HeLa-dluc), the luciferase knockdown efficiency was ≤ 30%.
Turning to `CCCCC/C=C\C/C=C\CCCCCCCCOC1(OCCCCCCCC/C=C\C/C=C\CCCCC)CCN(C)CC1` [YSK05], the “tissue content of cationic lipid in liver and spleen over time” value in series [2] is given as “almost constant until 72 hours after the administration”.
As for `CCCCCCCC/C=C\CCCCCCCC(=O)OCCCCCCC(O)(CCCCCCOC(=O)CCCCCCC/C=C\CCCCCCCC)CCCCOC(=O)C1CCN(C)CC1` [CL15H6, 7-Hydroxy 7-(4-((1-methylpiperidine-4-carbonyl)oxy)butyl)tridecane-1,13-diyl dioleate], in series [1] (LNPs loaded with siRNA against luciferase, 24 hours, compared with CL15A), the “in vitro knockdown activity” value is reported as “about three times higher activity than that of CL15A”.

These data come from patent publication US11517528B2, “Lipid membrane structure for delivery into siRNA cell” (NATIONAL UNIVERSITY CORPORATION HOKKAIDO UNIVERSITY, priority 2017, dated 2022).
